Experimental data reported in US10493077B2, “Fused imidazo-piperidine JAK inhibitor compound” (THERAVANCE BIOPHARMA R&D IP, LLC, priority 2017, dated 2019).

What was measured:
SYK = target: T1, SYK (Homo sapiens, UniProt P43405); experiment: Kinome screen, SYK; assay type: binding; details: screened at 1 μM
T1 construct: made in house; host or cells: T7 phage in E. coli (BL21-derived) or HEK-293
Method: (§1) Kinase-tagged T7 phage strains were grown in parallel in 24-well blocks in an E. coli host derived from the BL21 strain. E. coli were grown to log-phase and infected with T7 phage from a frozen stock (multiplicity of infection=0.4) and incubated with shaking at 32° C. until lysis (90-150 minutes). The lysates were centrifuged (6,000×g) and filtered (0.2 μm) to remove cell debris. The remaining kinases were produced in HEK-293 cells and subsequently tagged with DNA for qPCR detection.
(§2) Streptavidin-coated magnetic beads were treated with biotinylated small molecule ligands for 30 minutes at room temperature to generate affinity resins for kinase assays. The liganded beads were blocked with excess biotin and washed with blocking buffer (SeaBlock (Pierce), 1% BSA, 0.05% Tween 20, 1 mM DTT) to remove unbound ligand and to reduce non-specific phage binding. […] Test compounds were prepared as 40× stocks in 100% DMSO and directly diluted into the assay. All reactions were performed in polypropylene 384-well plates in a final volume of 0.04 ml. […] The beads were then re-suspended in elution buffer (1×PBS, 0.05% Tween 20, 0.5 μM non-biotinylated affinity ligand) and incubated at room temperature with shaking for 30 minutes. The kinase concentration in the eluates was measured by qPCR.

JAK3 = target: T2, JAK3 (Homo sapiens, UniProt P52333); experiment: LanthaScreen JAK biochemical assay, JAK3; details: read-out: JAK 3 pKi (converted)
T2 construct: GST; purchased Life Technologies
T2 sequence (P52333 whole entry): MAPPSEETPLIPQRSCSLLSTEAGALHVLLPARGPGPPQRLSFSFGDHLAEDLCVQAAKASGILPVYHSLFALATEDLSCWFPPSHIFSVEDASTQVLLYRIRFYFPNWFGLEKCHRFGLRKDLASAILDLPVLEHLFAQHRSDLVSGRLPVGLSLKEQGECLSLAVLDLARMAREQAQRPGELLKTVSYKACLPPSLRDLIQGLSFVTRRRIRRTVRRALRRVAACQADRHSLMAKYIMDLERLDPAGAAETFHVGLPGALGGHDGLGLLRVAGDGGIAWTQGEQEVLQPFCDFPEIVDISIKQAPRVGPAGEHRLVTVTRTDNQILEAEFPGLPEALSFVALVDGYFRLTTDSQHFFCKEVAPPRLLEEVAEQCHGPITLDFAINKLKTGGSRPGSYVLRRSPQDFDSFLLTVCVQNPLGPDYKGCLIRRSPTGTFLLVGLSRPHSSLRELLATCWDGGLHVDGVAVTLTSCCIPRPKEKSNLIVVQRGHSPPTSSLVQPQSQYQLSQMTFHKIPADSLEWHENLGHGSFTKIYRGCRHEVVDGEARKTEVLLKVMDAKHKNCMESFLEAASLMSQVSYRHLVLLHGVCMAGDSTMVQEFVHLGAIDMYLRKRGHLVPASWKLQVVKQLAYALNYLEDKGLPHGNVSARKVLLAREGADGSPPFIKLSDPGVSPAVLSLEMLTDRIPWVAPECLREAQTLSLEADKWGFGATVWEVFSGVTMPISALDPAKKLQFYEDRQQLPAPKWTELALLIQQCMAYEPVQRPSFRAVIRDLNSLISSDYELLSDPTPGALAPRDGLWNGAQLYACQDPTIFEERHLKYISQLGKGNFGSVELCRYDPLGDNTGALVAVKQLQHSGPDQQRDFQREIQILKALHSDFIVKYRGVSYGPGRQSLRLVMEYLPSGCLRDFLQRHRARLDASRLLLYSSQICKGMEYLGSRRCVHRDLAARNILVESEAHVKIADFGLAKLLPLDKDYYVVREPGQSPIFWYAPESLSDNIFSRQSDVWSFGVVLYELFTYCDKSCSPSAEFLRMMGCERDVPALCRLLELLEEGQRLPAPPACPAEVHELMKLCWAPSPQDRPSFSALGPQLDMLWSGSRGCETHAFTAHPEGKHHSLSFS
Method: A panel of four LanthaScreen JAK biochemical assays (JAK1, 2, 3 and Tyk2) were carried in a common kinase reaction buffer (50 mM HEPES, pH 7.5, 0.01% Brij-35, 10 mM MgCl2, and 1 mM EGTA). Recombinant GST-tagged JAK enzymes and a GFP-tagged STAT1 peptide substrate were obtained from Life Technologies.
Serially diluted compound was pre-incubated with each of the four JAK enzymes and the substrate in white 384-well microplates (Corning) at ambient temperature for 1 h. ATP was subsequently added to initiate the kinase reactions in 10 μL total volume, with 1% DMSO. […] The plates were allowed to incubate at ambient temperature for 1 h before being read on the EnVision reader (Perkin Elmer). Emission ratio signals (520 nm/495 nm) were recorded and utilized to calculate the percent inhibition values based on DMSO and background controls.
For dose-response analysis, percent inhibition data were plotted vs. compound concentrations, and IC50 values were determined from a 4-parameter robust fit model with the Prism software (GraphPad Software). Results were expressed as pIC50 (negative logarithm of IC50) and subsequently converted to pKi (negative logarithm of dissociation constant, Ki) using the Cheng-Prusoff equation.

IFNγ induced IP-10 = experiment: Pharmacodynamic assay: inhibition of IFNγ-induced IP-10 in rabbit eyes; assay type: in vivo; details: Form 1 suspension, 0.9 mg intravitreal, 1 week pre-treatment, New Zealand White rabbits
Method: The ability of a single intravitreal administration of test compound to inhibit interferon-gamma (IFNγ) induced IP-10 protein levels was measured in rabbit vitreous and retina/choroid tissues.
A suspension formulation was prepared by combining compound 1 of Example 2 (Form 1), with 0.5% hydroxypropyl methylcellulose (HPMC E5), 0.02% Tween 80, and 9 mg/mL sodium chloride in purified water to attain a target concentration of 20 mg/mL.
Male, New Zealand White rabbits (Liveon Biolabs, India) were used for the studies. Animals were acclimated after arrival at the research facilities (Jubilant Biosys Ltd., India). Each rabbit was given a total of two intravitreal (IVT) injections with a total dose volume of 50 μL per eye. The first IVT injection (45 μL per eye) delivered 0.9 mg of test compound or vehicle. One week later, a second IVT injection (5 μL per eye) delivered IFNγ (1 μg/eye; stock solution 1 mg/mL; Kingfisher Biotech) or vehicle for the induction of IP-10. […]
Tissues were collected 24 hours after the second IVT injection with IFNγ. Vitreous humor (VH) and retina/choroid tissues (R/C) were collected and homogenized, and IP-10 protein levels were measured using a rabbit CXCL10 (IP-10) ELISA kit (Kingfisher Biotech). The percent inhibition of IFNγ-induced IP-10 was calculated in comparison to the vehicle/vehicle and vehicle/IFNγ groups.

VEGFR2 = target: T3, VEGFR2 (Homo sapiens, UniProt P35968); experiment: Kinome screen, VEGFR2; assay type: binding; details: screened at 1 μM
T3 construct: made in house; host or cells: T7 phage in E. coli (BL21-derived) or HEK-293
T3 sequence (P35968 20-1356): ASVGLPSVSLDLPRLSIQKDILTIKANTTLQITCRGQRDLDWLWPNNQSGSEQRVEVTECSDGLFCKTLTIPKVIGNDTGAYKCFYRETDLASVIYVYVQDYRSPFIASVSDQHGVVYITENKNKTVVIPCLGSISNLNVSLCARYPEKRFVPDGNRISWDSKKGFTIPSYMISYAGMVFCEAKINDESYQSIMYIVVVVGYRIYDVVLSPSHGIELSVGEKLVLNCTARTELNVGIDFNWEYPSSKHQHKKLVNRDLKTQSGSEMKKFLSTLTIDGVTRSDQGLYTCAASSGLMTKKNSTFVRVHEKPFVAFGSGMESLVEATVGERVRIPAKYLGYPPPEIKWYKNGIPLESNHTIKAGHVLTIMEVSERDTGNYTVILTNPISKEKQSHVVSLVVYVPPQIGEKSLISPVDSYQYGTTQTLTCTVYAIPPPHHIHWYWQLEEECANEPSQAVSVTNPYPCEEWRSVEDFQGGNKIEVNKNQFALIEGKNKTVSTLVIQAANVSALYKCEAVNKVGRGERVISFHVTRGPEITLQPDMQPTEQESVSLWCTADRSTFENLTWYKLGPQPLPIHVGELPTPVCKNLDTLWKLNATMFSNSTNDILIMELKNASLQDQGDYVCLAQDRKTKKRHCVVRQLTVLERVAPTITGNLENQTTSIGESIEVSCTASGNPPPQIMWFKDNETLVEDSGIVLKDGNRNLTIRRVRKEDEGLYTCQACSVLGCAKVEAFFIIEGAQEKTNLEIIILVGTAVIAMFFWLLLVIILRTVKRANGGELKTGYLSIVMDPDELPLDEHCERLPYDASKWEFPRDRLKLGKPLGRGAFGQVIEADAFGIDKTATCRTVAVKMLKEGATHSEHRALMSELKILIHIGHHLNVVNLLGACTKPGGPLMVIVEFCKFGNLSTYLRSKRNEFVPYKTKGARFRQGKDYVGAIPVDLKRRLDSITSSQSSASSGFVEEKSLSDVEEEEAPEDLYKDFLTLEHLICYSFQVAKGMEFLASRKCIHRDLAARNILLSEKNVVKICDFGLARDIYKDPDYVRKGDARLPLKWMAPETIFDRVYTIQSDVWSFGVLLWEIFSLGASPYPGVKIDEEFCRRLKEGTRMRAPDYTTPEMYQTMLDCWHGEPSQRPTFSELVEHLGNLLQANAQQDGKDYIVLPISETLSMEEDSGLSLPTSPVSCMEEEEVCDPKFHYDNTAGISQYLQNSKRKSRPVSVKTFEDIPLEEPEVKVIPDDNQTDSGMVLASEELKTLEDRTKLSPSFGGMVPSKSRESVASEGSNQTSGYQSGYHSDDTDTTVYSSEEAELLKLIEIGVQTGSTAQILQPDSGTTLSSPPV
Method: as §1, §2

[1] = test system: IL-2/anti-CD3 stimulated IFNγ in human PBMCs; experiment: Cellular JAK potency assay: inhibition of IL-2/anti-CD3 stimulated IFNγ in human PBMCs; assay type: cell-based; details: PBMC, 24 h stimulation, read-out: pIC50, inhibition of IL-2/anti-CD3 stimulated IFNγ (converted)
Method: The potency of the test compound for inhibition of interleukin-2 (IL-2)/anti-CD3 stimulated interferon gamma (IFNγ) was measured in human peripheral blood mononuclear cells (PBMCs) isolated from human whole blood (Stanford Blood Center). Because IL-2 signals through JAK, this assay provides a measure of JAK cellular potency.
(1) Human peripheral blood mononuclear cells (PBMC) were isolated from human whole blood of healthy donors using a ficoll gradient. Cells were cultured in a 37° C., 5% CO2 humidified incubator in RPMI (Life Technologies) supplemented with 10% Heat Inactivated Fetal Bovine Serum (FBS, Life Technologies), 2 mM Glutamax (Life Technologies), 25 mM HEPES (Life Technologies) and 1× Pen/Strep (Life Technologies). Cells were seeded at 200,000 cells/well in media (50 μL) and cultured for 1 h. The compound was serially diluted in DMSO and then diluted another 500-fold (to a 2× final assay concentration) in media. […]
(2) After cytokine stimulation, cells were centrifuged at 500 g for 5 min and supernatants removed and frozen at −80° C. To determine the inhibitory potency of test compounds in response to IL-2/anti-CD3, supernatant IFNγ concentrations were measured via ELISA (R&D Systems). IC50 values were determined from analysis of the inhibition curves of concentration of IFNγ vs compound concentration. Data are expressed as pIC50 (negative decadic logarithm IC50) values.

With `CCc1cc(O)c(F)cc1-c1cc(F)c2c(-c3nc4c([nH]3)CCN(C(=O)CN3CCOCC3)C4)n[nH]c2c1` [Compound 1, 1-(2-(6-(2-ethyl-5-fluoro-4-hydroxyphenyl)-4-fluoro-1H-indazol-3-yl)-1,4,6,7-tetrahydro-5H-imidazo[4,5-c]pyridin-5-yl)-2-morpholinoethan-1-one] the inhibition at 1 µM (SYK) was 46%, the Ki (JAK3) was 0.2 nM and the “inhibition of IFNγ-induced IP-10 in retina/choroid tissues” value (IFNγ induced IP-10) was 80%. For the same molecule, the “inhibition of IFNγ-induced IP-10 in vitreous humor” value (IFNγ induced IP-10) was 81%, the inhibition at 1 µM (VEGFR2) was 42% and the IC50 [1] was roughly 200 nM.
